Assay results published in PubChem BioAssay AID1919017 (Molecular Pharmacology Branch, DTP, NCI, 2023).
Values joined by “and” are separate entries in the source; they are usually repeats but may differ in a detail not shown here. Equal values may be shown once.

Test system: SW1271 complex spheroids with HUVEC/MSC, growth, % test/control
Experiment: Anticancer human tumor SW1271 cell line growth inhibition [AhR];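 further: spheroids exposed to agents for 7 days before readout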
Conditions: for viability, T/C: stronger effect = lower value
Summary of the method: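 Spheroids combined tumor cells with HUVEC endothelial cells and human MSCs as stroma. AhR antagonists were paired with standard or investigational drugs, each dosed in half-log steps down from near clinical Cmax, or from 10 microM where Cmax was unknown.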

[1] = curve of first compound, second compound 0.1 µM
[2] = curve of first compound, second compound 0.316 µM
[3] = curve of first compound, second compound 1 µM
[4] = curve of first compound, second compound 3.16 µM
[5] = curve of first compound, second compound 10 µM

## CC(C)c1c(-c2ccccc2)nc2c(C#N)c[nH]n2c1=O
Compound 0.0316 µM
  viability, T/C: 110% and 109% and 85.9%
Compound 0.1 µM
  viability, T/C: 81.4% and 104% and 86.4%
Compound 0.316 µM
  viability, T/C: 121% and 91.8% and 104%
Compound 1 µM
  viability, T/C: 101% and 92.5% and 93.3%
Compound 3.16 µM
  viability, T/C: 110% and 91.8% and 94%
Compound 10 µM
  viability, T/C: 107% and 91.7% and 85.8%
Curve of compound
  IC50: > 10000 nM

## Nc1ccccc1NC(=O)c1ccc(CNC(=O)OCc2cccnc2)cc1 + Cc1ccccc1N=Nc1ccc(NC(=O)c2ccnn2C)c(C)c1
[1]
  IC50: 1860 nM
[2]
  IC50: 2770 nM
[3]
  IC50: 2110 nM
[4]
  IC50: 1740 nM
[5]
  IC50: 1460 nM
Second compound 0.1 µM, first compound 0.0316 µM
  viability, T/C: 76.7%
Second compound 0.1 µM, first compound 0.1 µM
  viability, T/C: 135%
Second compound 0.1 µM, first compound 0.316 µM
  viability, T/C: 91%
Second compound 0.1 µM, first compound 1 µM
  viability, T/C: 62.1%
Second compound 0.1 µM, first compound 3.16 µM
  viability, T/C: 41.5%
Second compound 0.1 µM, first compound 10 µM
  viability, T/C: 13.6%
Second compound 0.316 µM, first compound 0.0316 µM
  viability, T/C: 90.2%
Second compound 0.316 µM, first compound 0.1 µM
  viability, T/C: 103%
Second compound 0.316 µM, first compound 0.316 µM
  viability, T/C: 93.8%
Second compound 0.316 µM, first compound 1 µM
  viability, T/C: 86%
Second compound 0.316 µM, first compound 3.16 µM
  viability, T/C: 45.3%
Second compound 0.316 µM, first compound 10 µM
  viability, T/C: 18%
Second compound 1 µM, first compound 0.0316 µM
  viability, T/C: 101%
Second compound 1 µM, first compound 0.1 µM
  viability, T/C: 100%
Second compound 1 µM, first compound 0.316 µM
  viability, T/C: 90.7%
Second compound 1 µM, first compound 1 µM
  viability, T/C: 63.1%
Second compound 1 µM, first compound 3.16 µM
  viability, T/C: 43.7%
Second compound 1 µM, first compound 10 µM
  viability, T/C: 19.9%
Second compound 3.16 µM, first compound 0.0316 µM
  viability, T/C: 119%
Second compound 3.16 µM, first compound 0.1 µM
  viability, T/C: 120%
Second compound 3.16 µM, first compound 0.316 µM
  viability, T/C: 90.2%
Second compound 3.16 µM, first compound 1 µM
  viability, T/C: 64.3%
Second compound 3.16 µM, first compound 3.16 µM
  viability, T/C: 36.5%
Second compound 3.16 µM, first compound 10 µM
  viability, T/C: 23.7%
Second compound 10 µM, first compound 0.0316 µM
  viability, T/C: 89%
Second compound 10 µM, first compound 0.1 µM
  viability, T/C: 94%
Second compound 10 µM, first compound 0.316 µM
  viability, T/C: 86.6%
Second compound 10 µM, first compound 1 µM
  viability, T/C: 52.6%
Second compound 10 µM, first compound 3.16 µM
  viability, T/C: 41.2%
Second compound 10 µM, first compound 10 µM
  viability, T/C: 22.8%

## Nc1ncn(C2CC(O)C(CO)S2)c(=O)n1 (stereo not drawn) + Cc1ccccc1N=Nc1ccc(NC(=O)c2ccnn2C)c(C)c1
[1]
  IC50: > 300 nM
[2]
  IC50: > 300 nM
[3]
  IC50: > 300 nM
[4]
  IC50: > 300 nM
[5]
  IC50: > 300 nM
Second compound 0.1 µM, first compound 0.000949 µM
  viability, T/C: 120%
Second compound 0.1 µM, first compound 0.003 µM
  viability, T/C: 102%
Second compound 0.1 µM, first compound 0.00949 µM
  viability, T/C: 87.8%
Second compound 0.1 µM, first compound 0.03 µM
  viability, T/C: 102%
Second compound 0.1 µM, first compound 0.0949 µM
  viability, T/C: 95.4%
Second compound 0.1 µM, first compound 0.3 µM
  viability, T/C: 79.5%
Second compound 0.316 µM, first compound 0.000949 µM
  viability, T/C: 101%
Second compound 0.316 µM, first compound 0.003 µM
  viability, T/C: 94.4%
Second compound 0.316 µM, first compound 0.00949 µM
  viability, T/C: 83.6%
Second compound 0.316 µM, first compound 0.03 µM
  viability, T/C: 89.2%
Second compound 0.316 µM, first compound 0.0949 µM
  viability, T/C: 89.9%
Second compound 0.316 µM, first compound 0.3 µM
  viability, T/C: 78.6%
Second compound 1 µM, first compound 0.000949 µM
  viability, T/C: 87.9%
Second compound 1 µM, first compound 0.003 µM
  viability, T/C: 96%
Second compound 1 µM, first compound 0.00949 µM
  viability, T/C: 109%
Second compound 1 µM, first compound 0.03 µM
  viability, T/C: 94.6%
Second compound 1 µM, first compound 0.0949 µM
  viability, T/C: 76.9%
Second compound 1 µM, first compound 0.3 µM
  viability, T/C: 99.9%
Second compound 3.16 µM, first compound 0.000949 µM
  viability, T/C: 81.2%
Second compound 3.16 µM, first compound 0.003 µM
  viability, T/C: 115%
Second compound 3.16 µM, first compound 0.00949 µM
  viability, T/C: 116%
Second compound 3.16 µM, first compound 0.03 µM
  viability, T/C: 88.7%
Second compound 3.16 µM, first compound 0.0949 µM
  viability, T/C: 85.4%
Second compound 3.16 µM, first compound 0.3 µM
  viability, T/C: 105%
Second compound 10 µM, first compound 0.000949 µM
  viability, T/C: 103%
Second compound 10 µM, first compound 0.003 µM
  viability, T/C: 95.3%
Second compound 10 µM, first compound 0.00949 µM
  viability, T/C: 86%
Second compound 10 µM, first compound 0.03 µM
  viability, T/C: 92.7%
Second compound 10 µM, first compound 0.0949 µM
  viability, T/C: 85%
Second compound 10 µM, first compound 0.3 µM
  viability, T/C: 77.2%

## COc1cccc2c1C(=O)c1c(O)c3c(c(O)c1C2=O)CC(O)(C(=O)CO)CC3OC1CC(N)C(O)C(C)O1 (stereo not drawn)
Compound 0.0316 µM
  viability, T/C: 66.6% and 50.3% and 72.6%
Compound 0.1 µM
  viability, T/C: 69.8% and 46.8% and 56.1%
Compound 0.316 µM
  viability, T/C: 53% and 29.6% and 40.6%
Compound 1 µM
  viability, T/C: 7.45% and 5.09% and 6.04%
Compound 3.16 µM
  viability, T/C: 4.63% and 2.92% and 2.03%
Compound 10 µM
  viability, T/C: 13.6% and 3.38% and 3.85%
